According to patent US20100111965A1, “COMBINATION THERAPY” (FUSION ANTIBODIES LIMITED, priority 2006, published 2010):

Key:
[1] = tested on: H630 p53 mutant colorectal cancer cell; test: Western blot of AREG protein in H630 p53 mutant lysates after chemotherapy; type: cell-based, human; details: 48 hour treatment, two separate experiments
Procedure: FIG. 4 illustrates analysis of AREG protein 14, expression in H630 p53 mutant colorectal cancer cell lysates following a 48 hour CPT11 treatment. Western blots were probed using an anti-amphiregulin antibody. […] HCT 116, RKO, HT 29 and H630 are human colorectal carcinoma cell lines. After different time exposure to chemotherapy the cells were harvested, and washed in 1×PBS. The cell pellet was then lysed in a suitable amount of 1×RIPA lysis buffer (150 mM NaCl, 10 mM Tris at pH 7.2, 0.1% SDS, 1.0% triton X-100 and 5 mM.EDTA) supplemented with protease inhibitors. The cell lysate was briefly vortexed, incubated on ice for 10 min and then centrifuged at 12,000 rpm to remove cell debris. Following centrifugation, the lysate supernatant was removed to a fresh eppendorf tube. Protein concentrations were assayed using the BCA Protein Assay (Pierce) according to the manufacturer's instructions. The absorbance of each sample at 620 nm was assayed using a microplate reader. A standard BSA curve was plotted for each experiment and the protein concentration of each sample calculated. To each sample an equal volume of 5× Western sample buffer and 10% of the final volume of β-mercaptoethanol (Sigma) was added. […] Protein bands were detected by exposure to autoradiograph which was subsequently developed. […]

RKO +/+ = test: Semi quantitative RT-PCR of AREG RNA in RKO cells after chemotherapy; type: cell-based, human; details: 48 h after treatment, 7.5 μM
Procedure: FIG. 1A illustrates analysis of AREG and beta actin RNA expression in RKO +/+ with/without either a 48 hour CPT11 treatment or 5-Fu treatment. RNA levels were analyzed following 35 cycle of PCR to determine relative differences in expression between treated and untreated samples;
Cells in a log phase of growth were seeded into T75 flask at ˜20% confluence and incubated overnight to allow adherence to the plate. […] Chemotherapy was substituted with saline in control flasks. After different time exposure to chemotherapy the cells were harvested, washed 3 times in PBS and total RNA was isolated using the RNA TAT-60 reagent according to the manufacturer instructions.
Reverse transcription was performed with 2.5 μg of RNA using a High Capacity cDNA Archive kit (Applied Biosystem) according to the instruction of the manufacturer.
Semi quantitative RT-PCR was performed using a PTC 225 Gradient Cycler (MJ Research Incorporated. The PCR mixture, in a final volume of 25 μL, contains 12.5 μL of 2× Biomix (Bioline, UK), 2 μL of primers (10 μmol/L), 1 μL of cDNA and 9.5 μL of dH2O). PCR conditions were initial denaturation step of 95 C for 10 minutes, followed by 35 cycles of 95° C. for 30 sec for denaturation; as annealing step 55° C. for 30 sec; and extension at 72° C. for 90 sec, with a final extension of 72° C. for 10 minutes. […]

[2] = tested on: H460 lung carcinoma cell line; test: FACS analysis of cell surface AREG in H460 with or without irinotecan; type: cell-based; details: 2.5 μM for 48 hours
Procedure: Following treatment cells were stained with AREG monoclonal antibodies and analysed by FACS
After 48 hours cells were washed in PBS and blocked for 20 minutes in Normal Goat Serum. 5×10^5 cells were incubated with AREG antibodies or isotype control for 2 hours and washed in PBS-T. The cells were incubated with a FITC conjugated goat anti-mouse antibody for 1 hour and washed in PBS-T before analysis on BD FACS canto.

## CCc1c2c(nc3ccc(OC(=O)N4CCC(N5CCCCC5)CC4)cc13)-c1cc3c(c(=O)n1C2)COC(=O)[C@]3(O)CC [CPT-11, irinotecan]
[1]
  AREG protein expression (western blot): Enhanced AREG expression
RKO +/+
  AREG RNA expression (RT-PCR): upregulation
[2]
  AREG surface expression levels (FACS), detected by clones 3H5 and 3F8: up-regulation in expression levels
